Source: ChEMBL document CHEMBL1201862, “PubChem BioAssay data set” (2004)
Calls of active or inactive are those of the source. Rule as the data show it, for most assays here: actives have a measured EC50 and inactives only a lower limit.

Assays:
[1] = biological target: Cytochrome P450 3A4 (Homo sapiens, UniProt P08684);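 also: CYP3A4 tested as one member of a cytochrome P450 panel screen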
[2] = system: Streptococcus; test: Group A Streptococcus viability loss, dose response, counter-screen for streptokinase expression inhibitor project, luminescence, BacTiterGlo (AID 1915); assay type: functional, organism-based;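 also: potency for reduction of bacterial viability or growth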
[3] = system: Streptococcus sp. 'group A'; test: growth inhibition of control SK(-) GAS strain, dose response, counter-screen for streptokinase expression inhibitor project, luminescence, kanamycin, BacTiterGlo, confirmation (AID 1900); assay type: functional, organism-based
[4] = biological target: T1, Streptokinase A (Streptococcus pyogenes serotype M1, UniProt P10520); test: S. pyogenes streptokinase expression inhibitors, potency, dose response, plasminogen activation absorbance, OD405 (AID 1914); assay type: functional, Streptococcus pyogenes M1 GAS;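 also: secreted streptokinase activity via plasminogen activation per viability signal from cell pellet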
T1 sequence (P10520 whole entry): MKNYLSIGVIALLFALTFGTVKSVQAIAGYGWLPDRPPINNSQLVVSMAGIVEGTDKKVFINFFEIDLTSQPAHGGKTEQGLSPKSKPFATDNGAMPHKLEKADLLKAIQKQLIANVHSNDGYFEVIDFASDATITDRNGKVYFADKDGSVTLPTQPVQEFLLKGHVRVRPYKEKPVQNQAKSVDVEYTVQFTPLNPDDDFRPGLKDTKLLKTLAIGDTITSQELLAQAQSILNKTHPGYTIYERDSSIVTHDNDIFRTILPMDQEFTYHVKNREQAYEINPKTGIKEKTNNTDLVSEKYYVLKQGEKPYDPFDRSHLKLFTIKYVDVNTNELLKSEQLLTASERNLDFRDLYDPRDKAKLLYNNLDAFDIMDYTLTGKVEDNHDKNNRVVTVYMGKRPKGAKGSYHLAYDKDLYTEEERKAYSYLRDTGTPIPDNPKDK

[5] = biological target: Cytochrome P450 2C9 (Homo sapiens, UniProt P11712)
Sequence of Cytochrome P450 2C9 (P11712 whole entry): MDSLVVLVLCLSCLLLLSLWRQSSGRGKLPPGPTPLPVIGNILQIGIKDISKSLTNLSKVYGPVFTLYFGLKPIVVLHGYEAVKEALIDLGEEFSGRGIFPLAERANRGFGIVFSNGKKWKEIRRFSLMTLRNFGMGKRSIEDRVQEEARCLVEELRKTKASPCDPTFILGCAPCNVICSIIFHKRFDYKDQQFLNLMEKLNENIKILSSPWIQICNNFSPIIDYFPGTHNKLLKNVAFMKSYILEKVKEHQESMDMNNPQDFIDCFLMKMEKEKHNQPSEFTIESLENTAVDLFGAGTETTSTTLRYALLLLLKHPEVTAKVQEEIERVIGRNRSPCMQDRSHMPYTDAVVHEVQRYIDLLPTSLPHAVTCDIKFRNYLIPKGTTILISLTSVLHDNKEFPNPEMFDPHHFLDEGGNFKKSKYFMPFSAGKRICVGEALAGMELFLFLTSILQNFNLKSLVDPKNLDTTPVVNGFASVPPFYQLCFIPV

[6] = biological target: Cytochrome P450 2D6 (Homo sapiens, UniProt P10635);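 also: CYP2D6 member of a cytochrome P450 panel assay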
Sequence of Cytochrome P450 2D6 (P10635 whole entry): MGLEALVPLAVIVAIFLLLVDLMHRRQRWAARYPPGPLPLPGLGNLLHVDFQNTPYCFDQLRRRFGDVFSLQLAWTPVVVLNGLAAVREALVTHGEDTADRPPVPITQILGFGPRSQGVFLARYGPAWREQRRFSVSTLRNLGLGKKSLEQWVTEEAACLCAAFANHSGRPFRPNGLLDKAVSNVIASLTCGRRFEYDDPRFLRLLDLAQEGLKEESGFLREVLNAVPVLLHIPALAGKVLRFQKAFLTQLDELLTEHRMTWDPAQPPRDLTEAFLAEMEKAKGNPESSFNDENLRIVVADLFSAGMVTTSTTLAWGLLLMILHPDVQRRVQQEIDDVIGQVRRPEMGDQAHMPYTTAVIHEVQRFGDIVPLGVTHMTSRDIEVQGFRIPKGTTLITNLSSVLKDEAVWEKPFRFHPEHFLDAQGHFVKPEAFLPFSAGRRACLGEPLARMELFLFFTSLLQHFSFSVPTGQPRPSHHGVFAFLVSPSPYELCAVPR

[7] = cytotoxicity toward NIH3T3 fibroblasts, dose response, counter-screen, cell-based, ATP luminescence, mouse fibroblasts (AID 2010); assay type: functional;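 also: cells exposed to compound for about 90 hours before reading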
[8] = inhibitors of intracellular T. cruzi replication, confirmation, NIH3T3 host cells, beta-gal luminescence (AID 2044); assay type: functional, cell-based;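 also: intracellular parasites grown in NIH/3T3 mouse fibroblasts as host cells; luminescent beta-galactosidase reporter signal from transgenic T. cruzi replicating inside host cells; inhibitors lower the luminescence signal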

Sequence of Cytochrome P450 3A4 (P08684 whole entry): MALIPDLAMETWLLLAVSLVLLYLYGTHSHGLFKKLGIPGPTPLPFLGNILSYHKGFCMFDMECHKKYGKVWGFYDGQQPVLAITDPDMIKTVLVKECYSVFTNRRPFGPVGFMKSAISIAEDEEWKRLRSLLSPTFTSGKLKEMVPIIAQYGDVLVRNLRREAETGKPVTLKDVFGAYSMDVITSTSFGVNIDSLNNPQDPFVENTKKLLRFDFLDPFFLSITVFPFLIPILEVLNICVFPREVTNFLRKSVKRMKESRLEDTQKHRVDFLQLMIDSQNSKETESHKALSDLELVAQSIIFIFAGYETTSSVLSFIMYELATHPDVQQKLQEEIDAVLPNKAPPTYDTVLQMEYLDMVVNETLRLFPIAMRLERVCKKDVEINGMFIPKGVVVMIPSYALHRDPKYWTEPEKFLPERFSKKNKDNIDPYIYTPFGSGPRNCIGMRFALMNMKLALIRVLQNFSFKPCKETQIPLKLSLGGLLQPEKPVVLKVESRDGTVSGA

For COc1cc(OC)nc(Oc2ccccc2C(=O)Oc2cccc(C)c2)n1, the AC50 [1] was 17.8 µM (inconclusive).

For CCCOc1ccc(C(=O)NC(=S)N2CCN(c3cc4c(cc3F)c(=O)c(C(=O)O)cn4CC)CC2)cc1, the EC50 [2] was 6.47 µM (active) and the EC50 [3] was 4.62 µM (active).

In the case of COc1ccc(C(=O)NC(=S)Nc2ccc(N3CCOCC3)c(Cl)c2)cc1[N+](=O)[O-], the EC50 [4] was > 150 µM (not active), the EC50 [2] was 19.3 µM (active) and the EC50 [3] was 1.73 µM (active).

With O=c1cnc2cnc(N3CCOCC3)nc2n1Cc1ccc(F)cc1 the AC50 [5] was 25.1 µM (inconclusive) and the AC50 [1] was 12.6 µM (inconclusive).

In the case of COc1ccc(C(=O)N2CCC3(CCN(Cc4ccccc4OC)CC3)CC2)cc1, the AC50 [6] was 12.6 µM (inconclusive).

With COc1ccc(-c2nc(NC(C)=O)sc2-c2ccc(OC)cc2)cc1 the EC50 [4] was 3.44 µM (active), the EC50 [2] was 14.6 µM (active) and the EC50 [3] was 6.7 µM (active).

With Oc1ccnc2cccc(Cc3ccccc3)c12 the AC50 [5] was 15.8 µM (inconclusive), the AC50 [1] was 28.2 µM (inconclusive) and the AC50 [6] was 0.00708 µM (inconclusive).

With CC(C)CN1CCC2(CC1)CCN(C(=O)Oc1ccccc1)CC2 the AC50 [6] was 20 µM (inconclusive).

With Cc1ccc(S(=O)(=O)NCc2ccccc2)cc1 the AC50 [1] was 31.6 µM (inconclusive).

In the case of COc1ccccc1CNc1ccc2c(c1)CCC2, the EC50 [7] was > 60 µM (not active) and the EC50 [8] was 2.21 µM (active).

In the case of CCOC(=O)n1c(=O)n(Cc2c(Cl)cccc2Cl)c2ccccc21, the AC50 [1] was 15.8 µM (inconclusive).

With CCCCCCOC(=O)/C=C/c1c(C)nc(O)nc1O the EC50 [4] was > 150 µM (not active), the EC50 [2] was 4.6 µM (active) and the EC50 [3] was 0.604 µM (active).

For COc1ccc(C(=O)/C=C2/c3ccccc3CC(C)(C)N2C)cc1, the AC50 [5] was 20 µM (inconclusive).

For COc1ccc(-n2c(S)nnc2-c2cnccn2)cc1, the AC50 [1] was 14.1 µM (inconclusive).

For CCCCCCCNC(=O)C1(CC2CC(c3cccc(Br)c3)=NO2)CCN(C(=O)c2ccccc2)CC1 (centres undefined), the EC50 [7] was > 60 µM (not active) and the EC50 [8] was 2.62 µM (active).

For CN1c2ccc([N+](=O)[O-])cc2CC2(C(=O)NC(=O)N(c3ccccc3)C2=O)C1c1ccccc1 (centres undefined), the EC50 [7] was > 60 µM (not active) and the EC50 [8] was 1.94 µM (active).

For NC(=O)C1(NC(=O)[C@@H]2CC3(CC(c4cccc(NC(=O)c5cc([N+](=O)[O-])cc([N+](=O)[O-])c5)c4)=NO3)CN2C(=O)c2ccccc2)CC1 (some centres undefined), the AC50 [5] was 11.2 µM (inconclusive).

For O=C(Nc1cccc(F)c1)N1CC2(CCNCC2)C1, the AC50 [6] was 7.94 µM (inconclusive).

For CNc1cc(-c2ccccc2C)ncn1, the AC50 [6] was 39.8 µM (inconclusive).

For COc1cc(C=O)ccc1OCCOCCOc1ccccc1Cl, the AC50 [6] was 20 µM (inconclusive).

In the case of COc1cc(C)ccc1OCCCOc1ccccc1Br, the EC50 [4] was > 150 µM (not active), the EC50 [2] was > 150 µM (not active) and the EC50 [3] was > 150 µM (not active). For the same compound, the AC50 [5] was 39.8 µM (inconclusive).

With Cc1ccc(CSCC(=O)N2CCN(c3ccc(F)cc3)CC2)cc1 the EC50 [7] was > 60 µM (not active) and the EC50 [8] was 2.18 µM (active).

With COC(=O)c1cc(-c2ccc(Br)cc2)c2c(=O)[nH]c(=O)n(C)c2n1 the EC50 [2] was 5.63 µM (active) and the EC50 [3] was 2.45 µM (active).

With COc1cc(F)ccc1CN1CCC(n2nccc2NC(=O)C2CCOC2)CC1 (centres undefined) the EC50 [4] was > 150 µM (not active), the EC50 [2] was > 150 µM (not active) and the EC50 [3] was > 150 µM (not active).

In the case of CS(=O)(=O)N1CCC2(CC1)CN(C(=O)Nc1cccc(C#N)c1)C2, the AC50 [1] was 0.0251 µM (inconclusive).

In the case of Cc1ccc(S(=O)(=O)N[C@H]2COC(=O)[C@@H](C)COC(=O)[C@H](C)NC(=O)C/C=C\[C@H]2C)cc1, the AC50 [1] was 3.98 µM (inconclusive).

For O=C(CC(=O)c1ccncc1)c1ccccc1, the AC50 [5] was 2 µM (inconclusive) and the AC50 [6] was 1.58 µM (inconclusive).

For CCCCNC(=O)c1ccc(NC(C)=O)c(Cl)c1, the EC50 [4] was > 150 µM (not active), the EC50 [2] was > 150 µM (not active) and the EC50 [3] was > 150 µM (not active).

With CN(C)c1ncc2nc(-c3ccccc3)c(=O)n(C[C@H]3CCCO3)c2n1 the AC50 [5] was 20 µM (inconclusive), the AC50 [1] was 12.6 µM (inconclusive) and the AC50 [6] was 12.6 µM (inconclusive).
